According to the kinase profiling compilation of Christmann-Franck et al. (2016):
One block for each compound: values may come before it.

Assays:
Experiment in all cases: radiometric filter-binding kinase assay
PRKCZ (human) = PRKCZ (human) (UniProt Q05513)
ROCK2 (rat) = conditions: accession and sequence are those of the human protein
CAMKK2 (human) = CAMKK2 (human) (UniProt Q96RR4)
PLK1 (human) = PLK1 (human) (UniProt P53350)
INSR (human) = INSR (human) (UniProt P06213)
[1] = system: AKT2 (human), P31751 [S474D]
IGF1R (human) = IGF1R (human) (UniProt P08069)
MARK4 (human) = MARK4 (human) (UniProt Q96L34)
YES1 (human) = YES1 (human) (UniProt P07947)
GSK3B (human) = GSK3B (human) (UniProt P49841)
HIPK1 (human) = HIPK1 (human) (UniProt Q86Z02)
PAK7 (human) = PAK7 (human) (UniProt Q9P286)
EPHB1 (human) = EPHB1 (human) (UniProt P54762)
EPHB4 (human) = EPHB4 (human) (UniProt P54760)
MAP3K9 (human) = MAP3K9 (human) (UniProt P80192)
LCK (mouse) = conditions: accession and sequence are those of the human protein
MAPK13 (human) = MAPK13 (human) (UniProt O15264)
MAP3K7 TAB1 (human) = MAP3K7 TAB1 (human) (UniProt Q15750+O43318)
PAK6 (human) = PAK6 (human) (UniProt Q9NQU5)
RPS6KA5 KD1 KD2 (human) = RPS6KA5 KD1 KD2 (human) (UniProt O75582)
EPHB3 (human) = EPHB3 (human) (UniProt P54753)
DAPK1 (human) = DAPK1 (human) (UniProt P53355)
SYK (human) = SYK (human) (UniProt P43405)
EPHA4 (human) = EPHA4 (human) (UniProt P54764)
MAP3K1 (human) = MAP3K1 (human) (UniProt Q13233)
CLK2 (human) = CLK2 (human) (UniProt P49760)
BRSK2 (human) = BRSK2 (human) (UniProt Q8IWQ3)
HIPK2 (human) = HIPK2 (human) (UniProt Q9H2X6)
HIPK3 (human) = HIPK3 (human) (UniProt Q9H422)
MAP3K5 (human) = MAP3K5 (human) (UniProt Q99683)
MAPK11 (human) = MAPK11 (human) (UniProt Q15759)
CSK (human) = CSK (human) (UniProt P41240)
MAPK1 (human) = MAPK1 (human) (UniProt P28482)
PKN2 (human) = PKN2 (human) (UniProt Q16513)
SRC (human) = SRC (human) (UniProt P12931)
PRKAA1 or PRKAA2 (rat) = conditions: compound 10.0 µM; accession and sequence are those of the human protein

MAPK13 (human), sequence (O15264 whole entry, looked up): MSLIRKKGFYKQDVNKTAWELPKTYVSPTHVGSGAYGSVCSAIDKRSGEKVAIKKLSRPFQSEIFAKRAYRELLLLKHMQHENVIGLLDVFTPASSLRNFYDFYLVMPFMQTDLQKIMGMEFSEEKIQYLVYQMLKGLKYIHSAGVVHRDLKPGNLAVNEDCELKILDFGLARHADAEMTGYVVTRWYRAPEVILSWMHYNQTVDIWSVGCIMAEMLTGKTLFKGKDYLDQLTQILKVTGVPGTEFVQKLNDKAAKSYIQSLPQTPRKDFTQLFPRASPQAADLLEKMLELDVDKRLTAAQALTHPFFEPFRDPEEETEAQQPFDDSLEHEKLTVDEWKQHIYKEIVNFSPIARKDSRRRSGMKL
YES1 (human), sequence (P07947 whole entry, looked up): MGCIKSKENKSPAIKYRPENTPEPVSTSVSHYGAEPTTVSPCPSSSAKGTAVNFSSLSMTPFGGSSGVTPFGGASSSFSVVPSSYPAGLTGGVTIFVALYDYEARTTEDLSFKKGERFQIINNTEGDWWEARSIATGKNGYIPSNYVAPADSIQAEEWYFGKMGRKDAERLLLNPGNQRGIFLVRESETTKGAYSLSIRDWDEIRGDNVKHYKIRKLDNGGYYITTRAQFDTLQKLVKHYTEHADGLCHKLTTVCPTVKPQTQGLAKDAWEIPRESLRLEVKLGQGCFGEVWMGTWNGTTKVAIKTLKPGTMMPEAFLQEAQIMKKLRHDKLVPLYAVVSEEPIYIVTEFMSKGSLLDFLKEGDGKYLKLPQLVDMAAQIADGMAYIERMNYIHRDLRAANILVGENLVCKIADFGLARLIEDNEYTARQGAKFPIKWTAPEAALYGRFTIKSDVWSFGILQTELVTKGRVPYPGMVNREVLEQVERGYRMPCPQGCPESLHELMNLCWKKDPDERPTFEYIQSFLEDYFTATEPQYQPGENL
HIPK2 (human), sequence (Q9H2X6 whole entry, looked up): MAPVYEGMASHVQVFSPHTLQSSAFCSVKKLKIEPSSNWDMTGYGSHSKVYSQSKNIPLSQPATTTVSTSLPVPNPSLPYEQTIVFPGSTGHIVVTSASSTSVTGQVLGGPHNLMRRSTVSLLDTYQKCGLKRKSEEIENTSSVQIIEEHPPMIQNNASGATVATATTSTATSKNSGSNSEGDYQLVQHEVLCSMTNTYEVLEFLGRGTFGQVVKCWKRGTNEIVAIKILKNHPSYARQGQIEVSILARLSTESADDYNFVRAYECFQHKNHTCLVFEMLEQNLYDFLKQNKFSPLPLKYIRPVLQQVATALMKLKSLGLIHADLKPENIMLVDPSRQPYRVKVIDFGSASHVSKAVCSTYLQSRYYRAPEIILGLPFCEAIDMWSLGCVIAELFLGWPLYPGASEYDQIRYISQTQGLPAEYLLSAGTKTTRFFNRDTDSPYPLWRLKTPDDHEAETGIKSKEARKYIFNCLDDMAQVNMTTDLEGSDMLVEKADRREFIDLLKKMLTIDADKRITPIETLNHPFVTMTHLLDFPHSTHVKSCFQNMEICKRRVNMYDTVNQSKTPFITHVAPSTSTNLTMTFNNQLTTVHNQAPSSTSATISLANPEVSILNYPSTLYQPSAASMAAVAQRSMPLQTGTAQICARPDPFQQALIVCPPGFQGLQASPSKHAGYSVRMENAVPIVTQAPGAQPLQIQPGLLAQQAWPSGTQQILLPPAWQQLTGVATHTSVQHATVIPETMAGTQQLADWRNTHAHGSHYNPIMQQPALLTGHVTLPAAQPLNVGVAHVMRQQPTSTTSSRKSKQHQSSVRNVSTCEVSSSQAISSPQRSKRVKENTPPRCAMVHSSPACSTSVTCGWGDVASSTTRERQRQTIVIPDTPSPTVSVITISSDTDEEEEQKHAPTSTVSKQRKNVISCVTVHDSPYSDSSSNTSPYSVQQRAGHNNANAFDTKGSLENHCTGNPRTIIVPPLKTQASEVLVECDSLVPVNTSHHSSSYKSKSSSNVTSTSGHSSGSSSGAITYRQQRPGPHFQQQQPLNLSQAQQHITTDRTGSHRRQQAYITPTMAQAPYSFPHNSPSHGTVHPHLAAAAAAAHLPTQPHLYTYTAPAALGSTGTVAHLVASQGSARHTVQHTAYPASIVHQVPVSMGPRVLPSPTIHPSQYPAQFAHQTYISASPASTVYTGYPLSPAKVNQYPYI
EPHA4 (human), sequence (P54764 whole entry, looked up): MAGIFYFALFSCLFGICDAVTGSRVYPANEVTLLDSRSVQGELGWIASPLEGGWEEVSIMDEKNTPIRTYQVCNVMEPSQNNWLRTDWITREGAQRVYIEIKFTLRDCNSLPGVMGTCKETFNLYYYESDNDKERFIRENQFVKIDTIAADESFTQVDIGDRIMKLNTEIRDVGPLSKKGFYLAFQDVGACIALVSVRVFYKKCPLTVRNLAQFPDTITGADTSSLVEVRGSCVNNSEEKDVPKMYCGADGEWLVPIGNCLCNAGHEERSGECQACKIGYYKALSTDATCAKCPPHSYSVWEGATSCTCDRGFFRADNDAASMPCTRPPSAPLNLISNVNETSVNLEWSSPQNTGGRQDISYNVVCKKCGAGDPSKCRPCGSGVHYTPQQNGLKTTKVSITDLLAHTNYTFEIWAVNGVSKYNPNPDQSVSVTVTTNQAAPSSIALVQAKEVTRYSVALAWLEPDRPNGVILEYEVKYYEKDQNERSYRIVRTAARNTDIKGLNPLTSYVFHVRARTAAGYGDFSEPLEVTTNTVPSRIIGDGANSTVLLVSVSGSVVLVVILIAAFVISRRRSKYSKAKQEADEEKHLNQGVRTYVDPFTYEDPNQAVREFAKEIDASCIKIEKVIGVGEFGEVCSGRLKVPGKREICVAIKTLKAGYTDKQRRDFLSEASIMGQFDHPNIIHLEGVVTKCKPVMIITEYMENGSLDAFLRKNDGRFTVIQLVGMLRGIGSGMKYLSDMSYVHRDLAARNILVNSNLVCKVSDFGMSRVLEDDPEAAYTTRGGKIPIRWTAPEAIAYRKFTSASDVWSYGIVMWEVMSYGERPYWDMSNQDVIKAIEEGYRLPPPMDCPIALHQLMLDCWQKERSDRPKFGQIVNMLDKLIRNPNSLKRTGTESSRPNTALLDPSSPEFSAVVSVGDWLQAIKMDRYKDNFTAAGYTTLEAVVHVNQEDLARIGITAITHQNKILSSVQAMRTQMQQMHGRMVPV
DAPK1 (human), sequence (P53355 whole entry, looked up): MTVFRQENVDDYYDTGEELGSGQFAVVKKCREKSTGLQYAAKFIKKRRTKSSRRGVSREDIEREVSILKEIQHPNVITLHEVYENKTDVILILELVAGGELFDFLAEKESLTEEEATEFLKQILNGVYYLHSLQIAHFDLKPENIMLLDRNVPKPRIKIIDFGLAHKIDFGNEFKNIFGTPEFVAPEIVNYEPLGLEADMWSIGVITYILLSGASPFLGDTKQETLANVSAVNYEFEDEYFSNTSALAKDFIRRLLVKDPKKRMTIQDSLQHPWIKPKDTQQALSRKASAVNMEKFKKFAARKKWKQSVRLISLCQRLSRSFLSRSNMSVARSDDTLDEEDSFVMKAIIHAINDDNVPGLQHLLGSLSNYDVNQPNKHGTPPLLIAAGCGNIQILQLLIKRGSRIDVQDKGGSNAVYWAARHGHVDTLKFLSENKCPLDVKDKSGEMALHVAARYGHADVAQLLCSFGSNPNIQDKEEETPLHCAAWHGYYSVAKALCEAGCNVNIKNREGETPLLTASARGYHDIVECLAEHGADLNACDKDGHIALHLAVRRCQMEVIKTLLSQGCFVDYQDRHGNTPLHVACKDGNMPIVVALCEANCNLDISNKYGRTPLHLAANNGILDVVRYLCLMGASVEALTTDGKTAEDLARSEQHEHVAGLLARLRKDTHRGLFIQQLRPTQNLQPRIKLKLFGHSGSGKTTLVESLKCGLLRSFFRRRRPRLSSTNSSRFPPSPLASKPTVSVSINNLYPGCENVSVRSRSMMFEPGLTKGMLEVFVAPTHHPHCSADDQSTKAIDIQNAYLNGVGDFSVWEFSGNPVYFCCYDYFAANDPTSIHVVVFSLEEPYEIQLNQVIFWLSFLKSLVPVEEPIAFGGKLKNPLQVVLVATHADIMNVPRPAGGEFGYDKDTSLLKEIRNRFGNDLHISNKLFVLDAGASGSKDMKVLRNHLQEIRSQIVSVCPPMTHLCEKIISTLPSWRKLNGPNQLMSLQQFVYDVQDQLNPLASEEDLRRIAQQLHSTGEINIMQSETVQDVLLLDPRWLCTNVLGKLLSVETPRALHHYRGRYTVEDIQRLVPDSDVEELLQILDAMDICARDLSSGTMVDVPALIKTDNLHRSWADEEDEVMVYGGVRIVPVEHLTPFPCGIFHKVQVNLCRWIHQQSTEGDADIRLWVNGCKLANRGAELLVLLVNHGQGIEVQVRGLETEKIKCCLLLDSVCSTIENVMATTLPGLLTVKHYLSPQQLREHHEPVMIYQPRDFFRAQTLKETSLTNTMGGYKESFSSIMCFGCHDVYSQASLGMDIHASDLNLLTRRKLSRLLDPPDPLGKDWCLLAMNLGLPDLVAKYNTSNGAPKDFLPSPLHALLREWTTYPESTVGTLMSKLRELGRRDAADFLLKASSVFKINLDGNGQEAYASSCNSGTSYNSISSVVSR
MAPK11 (human), sequence (Q15759 whole entry, looked up): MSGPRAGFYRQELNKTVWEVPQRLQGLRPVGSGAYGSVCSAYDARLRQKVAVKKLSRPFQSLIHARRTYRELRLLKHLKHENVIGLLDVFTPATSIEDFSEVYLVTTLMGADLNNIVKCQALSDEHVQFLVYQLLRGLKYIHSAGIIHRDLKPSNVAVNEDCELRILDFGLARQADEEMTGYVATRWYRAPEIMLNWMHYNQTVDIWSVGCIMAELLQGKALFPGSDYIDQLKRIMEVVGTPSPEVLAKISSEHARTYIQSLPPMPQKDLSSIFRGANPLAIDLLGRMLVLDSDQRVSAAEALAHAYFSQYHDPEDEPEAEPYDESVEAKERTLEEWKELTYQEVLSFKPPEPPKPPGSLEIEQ

residual activity (PRKCZ (human); compound 0.1 µM): 90%
residual activity (PRKCZ (human); compound 1.0 µM): 95%
residual activity (ROCK2 (rat); compound 0.1 µM): 91%
residual activity (ROCK2 (rat); compound 1.0 µM): 81%
residual activity (CAMKK2 (human); compound 0.1 µM): 58%
residual activity (CAMKK2 (human); compound 1.0 µM): 21%
residual activity (PLK1 (human); compound 0.1 µM): 89%
residual activity (PLK1 (human); compound 1.0 µM): 98%
residual activity (INSR (human); compound 0.1 µM): 97%
residual activity (INSR (human); compound 1.0 µM): 100%
residual activity ([1]; compound 0.1 µM): 99%
residual activity ([1]; compound 1.0 µM): 108%
residual activity (IGF1R (human); compound 0.1 µM): 90%
residual activity (IGF1R (human); compound 1.0 µM): 105%
residual activity (MARK4 (human); compound 0.1 µM): 33%
residual activity (MARK4 (human); compound 1.0 µM): 29%
residual activity (YES1 (human); compound 0.1 µM): 113%
residual activity (YES1 (human); compound 1.0 µM): 71%
residual activity (GSK3B (human); compound 0.1 µM): 95%
residual activity (GSK3B (human); compound 1.0 µM): 96%
residual activity (HIPK1 (human); compound 0.1 µM): 96%
residual activity (HIPK1 (human); compound 1.0 µM): 94%
residual activity (PAK7 (human); compound 0.1 µM): 95%
residual activity (PAK7 (human); compound 1.0 µM): 88%
residual activity (EPHB1 (human); compound 0.1 µM): 107%
residual activity (EPHB1 (human); compound 1.0 µM): 108%
residual activity (EPHB4 (human); compound 0.1 µM): 101%
residual activity (EPHB4 (human); compound 1.0 µM): 117%
residual activity (MAP3K9 (human); compound 0.1 µM): 40%
residual activity (MAP3K9 (human); compound 1.0 µM): 16%
residual activity (LCK (mouse); compound 0.1 µM): 80%
residual activity (LCK (mouse); compound 1.0 µM): 67%
residual activity (MAPK13 (human); compound 0.1 µM): 88%
residual activity (MAPK13 (human); compound 1.0 µM): 90%
residual activity (MAP3K7 TAB1 (human); compound 0.1 µM): 96%
residual activity (MAP3K7 TAB1 (human); compound 1.0 µM): 57%
residual activity (PAK6 (human); compound 0.1 µM): 87%
residual activity (PAK6 (human); compound 1.0 µM): 84%
residual activity (RPS6KA5 KD1 KD2 (human); compound 0.1 µM): 98%
residual activity (RPS6KA5 KD1 KD2 (human); compound 1.0 µM): 68%
residual activity (EPHB3 (human); compound 0.1 µM): 110%
residual activity (EPHB3 (human); compound 1.0 µM): 101%
residual activity (DAPK1 (human); compound 0.1 µM): 84%
residual activity (DAPK1 (human); compound 1.0 µM): 72%
residual activity (SYK (human); compound 0.1 µM): 109%
residual activity (SYK (human); compound 1.0 µM): 93%
residual activity (EPHA4 (human); compound 0.1 µM): 103%
residual activity (EPHA4 (human); compound 1.0 µM): 114%
residual activity (MAP3K1 (human); compound 0.1 µM): 115%
residual activity (MAP3K1 (human); compound 1.0 µM): 137%
residual activity (CLK2 (human); compound 0.1 µM): 63%
residual activity (CLK2 (human); compound 1.0 µM): 21%
residual activity (BRSK2 (human); compound 0.1 µM): 88%
residual activity (BRSK2 (human); compound 1.0 µM): 75%
residual activity (HIPK2 (human); compound 0.1 µM): 95%
residual activity (HIPK2 (human); compound 1.0 µM): 95%
residual activity (HIPK3 (human); compound 0.1 µM): 91%
residual activity (HIPK3 (human); compound 1.0 µM): 108%
residual activity (MAP3K5 (human); compound 0.1 µM): 105%
residual activity (MAP3K5 (human); compound 1.0 µM): 88%
residual activity (MAPK11 (human); compound 0.1 µM): 103%
residual activity (MAPK11 (human); compound 1.0 µM): 114%
residual activity (CSK (human); compound 0.1 µM): 98%
residual activity (CSK (human); compound 1.0 µM): 112%
residual activity (MAPK1 (human); compound 0.1 µM): 111%
residual activity (MAPK1 (human); compound 1.0 µM): 110%
residual activity (PKN2 (human); compound 0.1 µM): 87%
residual activity (PKN2 (human); compound 1.0 µM): 66%
residual activity (SRC (human); compound 0.1 µM): 88%
residual activity (SRC (human); compound 1.0 µM): 70%
Structure (SMILES): O=C(NCCCNc1nc(Nc2cccc(CN3CCOCC3)c2)ncc1C1CC1)C1CCC1

residual activity (PRKCZ (human); compound 10.0 µM): 95%
residual activity (ROCK2 (rat); compound 10.0 µM): 76%
residual activity (CAMKK2 (human); compound 10.0 µM): 86%
residual activity (PLK1 (human); compound 10.0 µM): 97%
residual activity (INSR (human); compound 10.0 µM): 58%
residual activity ([1]; compound 10.0 µM): 82%
residual activity (IGF1R (human); compound 10.0 µM): 87%
residual activity (MARK4 (human); compound 10.0 µM): 86%
residual activity (YES1 (human); compound 10.0 µM): 82%
residual activity (GSK3B (human); compound 10.0 µM): 88%
residual activity (HIPK1 (human); compound 10.0 µM): 111%
residual activity (PAK7 (human); compound 10.0 µM): 94%
residual activity (EPHB1 (human); compound 10.0 µM): 75%
residual activity (EPHB4 (human); compound 10.0 µM): 91%
residual activity (MAP3K9 (human); compound 10.0 µM): 75%
residual activity (LCK (mouse); compound 10.0 µM): 81%
residual activity (MAPK13 (human); compound 10.0 µM): 98%
residual activity (MAP3K7 TAB1 (human); compound 10.0 µM): 127%
residual activity (PAK6 (human); compound 10.0 µM): 68%
residual activity (EPHB3 (human); compound 10.0 µM): 62%
residual activity (PRKAA1 or PRKAA2 (rat)): 82%
residual activity (DAPK1 (human); compound 10.0 µM): 88%
residual activity (SYK (human); compound 10.0 µM): 66%
residual activity (EPHA4 (human); compound 10.0 µM): 69%
residual activity (MAP3K1 (human); compound 10.0 µM): 92%
residual activity (CLK2 (human); compound 10.0 µM): 79%
residual activity (BRSK2 (human); compound 10.0 µM): 90%
residual activity (HIPK2 (human); compound 10.0 µM): 88%
residual activity (HIPK3 (human); compound 10.0 µM): 118%
residual activity (MAP3K5 (human); compound 10.0 µM): 81%
residual activity (MAPK11 (human); compound 10.0 µM): 70%
residual activity (CSK (human); compound 10.0 µM): 69%
residual activity (MAPK1 (human); compound 10.0 µM): 86%
residual activity (PKN2 (human); compound 10.0 µM): 86%
residual activity (SRC (human); compound 10.0 µM): 86%
Structure (SMILES): CC(C)C[C@H](NC(=O)CNC(=O)c1cc(Cl)ccc1Cl)B1OC(=O)CC(CC(=O)O)(C(=O)O)O1 (stereo not given in full)
